Data from patent US9194862B2, “Compositions and methods for determining cancer stem cell self-renewal potential” (THE REGENTS OF THE UNIVERSITY OF CALIFORNIA, priority 2009, dated 2015).

Legend:
[1] = system: Mcl-1 long and short isoform; assay: qPCR of Mcl-1 long and short isoforms in tumor cells harvested from treated mice; format: in vivo; conditions: tumor cells from treated mice (n=3) vs vehicle (n=2)
Description: For gene expression analysis, cDNA was made from RNA isolated from sorted progenitor populations (CD34^+CD38^+Lin^−). Isoform specific RT-PCR was used to determine expression levels of Bcl-2, Bcl-X, and Mcl-1 isoforms. Expression was confirmed using qPCR.

[2] = system: progenitors (CD34+CD38+Lin−) from CML BC-derived tumors; assay: CML BC progenitor engraftment in transplanted mice, FACS of human CD45+ cells in liver; format: in vivo; conditions: oral gavage daily for 3 weeks, 120 μg/kg, vs vehicle, FACS of livers, n=4 vs n=5, p=0.03
Description: Briefly, immunocompromised neonatal mice were transplanted intrahepatically with luciferase GFP transduced myeloid sarcomas from mice transplanted with BC CSC, the methodology described in Geron et al, Cancer Cell 2008; 13(4):321-30. […] Engraftment levels were determined by FACS analysis of human CD45^+ expression in mouse livers on […] post-transplant.
FIG. 3C. Left: qPCR analysis of Mcl-1 long (blue) and short (red) transcripts from progenitors (CD34^+CD38^+Lin^−) of several normal and CML samples. […] FIG. 4 below. […] FIG. 4A. […] Representative FACS data of CD45^+ cells in mouse livers transplanted with progenitors (CD34^+CD38^+Lin^−) from CML BC-derived tumors. […] Mouse livers were harvested at 13 weeks post-transplant, stained, and analyzed for human CD45^+ cells using FACS. • FIG. 4C.

Cc1cc2c(C(C)C)c(O)c(O)cc2c(O)c1-c1c(C)cc2c(C(C)C)c(O)c(O)cc2c1O [apogossypol]
Mcl-1 short isoform expression [1]: higher Mcl-1 short isoform expression
number/frequency of human CD45+ cells engrafted in the mouse liver (tumor cell engraftment) [2]: statistically significant (p=0.03) decrease in tumor cell engraftment
number/frequency of human CD45+ cells engrafted in the mouse liver (tumor cell engraftment) ([2]; listed as Apogossypol): statistically significant decrease
